# According to US11478478B2, “2,3-disubstituted 1-acyl-4-amino-1,2,3,4-tetrahydroquinoline derivatives and their use as bromodomain inhibitors” (GLAXOSMITHKLINE INTELLECTUAL PROPERTY (NO.2) LIMITED, priority 2013, dated 2022):
# Target: T1, BRD4 BD2 (Homo sapiens, UniProt O60885, Y97A)
# T1 construct: BRD4 (1-477) (Y97A) and (Y390A); made in house; host or cells: E. coli (pET15b vector)
# Experiment: TR-FRET binding assay, BRD4 BD2 (BD1-mutated protein)
# Conditions: read-out: pIC50 in the BRD4 BD2 assay (converted)
# How it was run: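 Displacement of Alexa Fluor647-labelled bromodomain ligand (at Kd) from 10 nM His-tagged BRD4 (1-477, Y97A) read by Eu-anti-His TR-FRET (665/615 ratio) in pH 7.4 HEPES buffer, 0.5% DMSO. Compound preincubated 30 min at rt, detection ≥30 min. pIC50 derived from four-parameter fit after normalisation to controls.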
row,IC50,SMILES
1,1 to 100 µM,"CC(=O)N1c2cccnc2[C@H](Nc2cccc(C)n2)[C@@H](C)[C@@H]1C1CC1 (racemic) [Example 113, rac-1-((2S,3R,4R)-2-cyclopropyl-3-methyl-4-((6-methylpyridin-2-yl)amino)-3,4-dihydro-1,5-naphthyridin-1(2H)-yl)ethanone]"
2,1 to 100 µM,"COCCn1cc(-c2ccc3c(c2)[C@@H](Nc2cnc(C)cn2)[C@H](C)[C@@H](C2CC2)N3C(C)=O)cn1 (single isomer, unassigned) [Example 138b]"
3,1 to 100 µM,"CC(=O)N1c2ccc(O)nc2[C@H](Nc2cccc(C)n2)[C@@H](C)[C@@H]1C1CC1 (racemic) [Example 112, rac-1-((2S,3R,4R)-2-cyclopropyl-6-hydroxy-3-methyl-4-((6-methylpyridin-2-yl)amino)-3,4-dihydro-1,5-naphthyridin-1(2H)-yl)ethanone]"
4,0.1 µM,"CC(=O)N1c2ccc(-c3cn[nH]c3)cc2[C@H](Nc2ncccn2)[C@@H](C)[C@@H]1C1CC1 [Example 581, 1-((2S,3R,4R)-2-cyclopropyyl-3-methyl-6-(1H-pyrazol-4-yl)-4-(pyrimidin-2-ylamino)-3,4-dihydroquinolin-1(2H)-yl)ethanone]"
5,0.1 µM,"CC(=O)N1c2ccc(N3CCOCC3)cc2[C@@H](Nc2ccccc2)[C@H](C)[C@H]1C (single isomer, unassigned) [Example 71b]"
6,0.1 µM,"CC(=O)N1c2ccc(C(N)=O)cc2[C@H](Nc2nccc(C(C)C)n2)[C@@H](C)[C@@H]1C1CC1 [Example 411, (2S,3R,4R)-1-acetyl-2-cyclopropyl-4-((4-isopropylpyrimidin-2-yl)amino)-3-methyl-1,2,3,4-tetrahydroquinoline-6-carboxamide]"

# Test system: Bromodomains BRD2, BRD3, BRD4 and BRDT
# Experiment: Binding of the fluoroligand to mutated versus non-mutated bromodomain
# Parameters: species or system Human
# Conditions: single residue mutations in the acetyl lysine binding pocket
# Description: Time Resolved Fluorescence Resonance Energy Transfer (TR-FRET) Assay Binding was assessed using a time resolved fluorescent resonance energy transfer binding assay. This utilises a 6 His purification tag at the N-terminal of the proteins as an epitope for an anti-6 His antibody labeled with Europium chelate (PerkinElmer AD0111) allowing binding of the Europium to the proteins which acts as the donor fluorophore. A small molecule, high affinity binder of the bromodomains BRD2, BRD3, BRD4 and BRDT has been labeled with Alexa Fluor647 (Reference Compound X) and this acts as the acceptor in the FRET pair.
# The binding of the compounds of formula (I) to Bromodomains BRD2, BRD3, BRD4 and BRDT was assessed using mutated proteins to detect differential binding to either Binding Domain 1 (BD1) or Binding Domain 2 (BD2) on the bromodomain. These single residue mutations in the acetyl lysine binding pocket greatly lower the affinity of the fluoroligand (Reference Compound X) for the mutated domain (>1000 fold selective for the non-mutated domain). Therefore in the final assay conditions, binding of the fluoroligand to the mutated domain cannot be detected and subsequently the assay is suitable to determine the binding of compounds to the single non-mutated bromodomain. […]
row,SMILES,selectivity of the fluoroligand for the non-mutated domain over the mutated domain
1,COc1ccc2c(c1)C(c1ccc(Cl)cc1)=N[C@@H](CC(=O)NCCCCCNC(=O)CCCCCC1(C)/C(=C/C=C/C=C/C3=[N+](CCCCS(=O)(=O)O)c4ccc(S(=O)(=O)O)cc4C3(C)C)N(CCCCS(=O)(=O)[O-])c3ccc(S(=O)(=O)O)cc31)c1nnc(C)n1-2 (stereo partly shown) [Reference Compound X],> 1000 fold
